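Method: 48-hour compound exposure of cells in 96-well plates, five concentrations, linear interpolation of endpoints. At the GI50, growth is halved. At the TGI there is no net growth.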
Assays:
Experiment in all cases: inhibition of tumour cell growth, NCI panel, 48 h
[1] = system: MOLT-4 leukemia
[2] = system: T-47D breast
[3] = system: HCC-2998 colon
[4] = system: CAKI-1 renal
[5] = system: PC-3 prostate
[6] = system: HS 578T breast
[7] = system: SF-295 CNS
[8] = system: ACHN renal
[9] = system: OVCAR-8 ovarian
[10] = system: SF-268 CNS
[11] = system: SR leukemia
[12] = system: HOP-92 NSCLC
[13] = system: NCI/ADR-RES ovarian
[14] = system: EKVX NSCLC
[15] = system: HT29 colon
[16] = system: A549 NSCLC
[17] = system: NCI-H460 lung
[18] = system: RPMI-8226 leukemia
[19] = system: SK-OV-3 ovarian
[20] = system: K-562 leukemia
[21] = system: SW-620 colon
[22] = system: HOP-62 NSCLC
[23] = system: U251 CNS
[24] = system: OVCAR-5 ovarian
[25] = system: LOX IMVI melanoma
[26] = system: RXF 393 renal
[27] = system: SK-MEL-2 melanoma
[28] = system: A498 renal
[29] = system: IGROV1 ovarian
[30] = system: OVCAR-4 ovarian
[31] = system: MALME-3M melanoma
[32] = system: DU-145 prostate
[33] = system: HCT-15 colon
[34] = system: BT-549 breast
[35] = system: UACC-62 melanoma
[36] = system: SK-MEL-5 melanoma
[37] = system: NCI-H226 lung
[38] = system: 786-0 renal
[39] = system: UO-31 renal
[40] = system: CCRF-CEM leukemia
[41] = system: SF-539 CNS
[42] = system: HCT-116 colon
[43] = system: UACC-257 melanoma
[44] = system: NCI-H23 lung
[45] = system: COLO 205 colon
[46] = system: M14 melanoma
[47] = system: KM12 colon
[48] = system: SNB-19 CNS
[49] = system: OVCAR-3 ovarian
[50] = system: MDA-MB-435
[51] = system: TK-10 renal
[52] = system: SNB-75 CNS
[53] = system: SN12C renal
[54] = system: NCI-H522 lung
[55] = system: MCF7 breast
[56] = system: MDA-MB-231 breast
[57] = system: SK-MEL-28 melanoma
[58] = system: HL-60(TB) leukemia

O=[N+]([O-])c1ccc(N/N=C/c2c(O)ccc3ccccc23)nc1
GI50 [1]: 1.62 µM | TGI [1]: > 100 µM | GI50 [2]: 6.39 µM | TGI [2]: > 100 µM | GI50 [3]: 28.8 µM | TGI [3]: > 100 µM | GI50 [4]: 0.518 µM | TGI [4]: > 100 µM | GI50 [5]: 48.7 µM | TGI [5]: > 100 µM | GI50 [6]: 57.8 µM | TGI [6]: > 100 µM | GI50 [7]: 4.9 µM | TGI [7]: > 100 µM | GI50 [8]: 0.775 µM | TGI [8]: > 100 µM | GI50 [9]: 5.78 µM | TGI [9]: > 100 µM | GI50 [10]: 4 µM | TGI [10]: > 100 µM | GI50 [11]: 0.665 µM | TGI [11]: > 100 µM | GI50 [12]: 7.94 µM | TGI [12]: 99.4 µM | GI50 [13]: 1.82 µM | TGI [13]: > 100 µM | GI50 [14]: 6.5 µM | TGI [14]: > 100 µM | GI50 [15]: > 100 µM | TGI [15]: > 100 µM | GI50 [16]: 27.7 µM | TGI [16]: > 100 µM | GI50 [17]: 3.3 µM | TGI [17]: > 100 µM | GI50 [18]: > 100 µM | TGI [18]: > 100 µM | GI50 [19]: > 100 µM | TGI [19]: > 100 µM | GI50 [20]: > 100 µM | TGI [20]: > 100 µM | GI50 [21]: 3.61 µM | TGI [21]: > 100 µM | GI50 [22]: 6.82 µM | TGI [22]: > 100 µM | GI50 [23]: 5.01 µM | TGI [23]: > 100 µM | GI50 [24]: > 100 µM | TGI [24]: > 100 µM | GI50 [25]: 1.26 µM | TGI [25]: > 100 µM | GI50 [26]: > 100 µM | TGI [26]: > 100 µM | GI50 [27]: > 100 µM | TGI [27]: > 100 µM | GI50 [28]: > 100 µM | TGI [28]: > 100 µM | GI50 [29]: 7.48 µM | TGI [29]: > 100 µM | GI50 [30]: 0.783 µM | TGI [30]: > 100 µM | GI50 [31]: 27.8 µM | TGI [31]: > 100 µM | GI50 [32]: 6.77 µM | TGI [32]: > 100 µM | GI50 [33]: 0.655 µM | TGI [33]: > 100 µM | GI50 [34]: 39.8 µM | TGI [34]: > 100 µM | GI50 [35]: 9.82 µM | TGI [35]: > 100 µM | GI50 [36]: 20.1 µM | TGI [36]: > 100 µM | GI50 [37]: 93.8 µM | TGI [37]: > 100 µM | GI50 [38]: 13.3 µM | TGI [38]: > 100 µM | GI50 [39]: 1.25 µM | TGI [39]: > 100 µM | GI50 [40]: 0.918 µM | TGI [40]: > 100 µM | GI50 [41]: 11.1 µM | TGI [41]: > 100 µM | GI50 [42]: 3.16 µM | TGI [42]: > 100 µM | GI50 [43]: 8.75 µM | TGI [43]: > 100 µM | GI50 [44]: > 100 µM | TGI [44]: > 100 µM | GI50 [45]: 30.5 µM | TGI [45]: > 100 µM | GI50 [46]: 16.4 µM | TGI [46]: > 100 µM | GI50 [47]: 8.73 µM | TGI [47]: > 100 µM | GI50 [48]: > 100 µM | TGI [48]: > 100 µM | GI50 [49]: 0.517 µM | TGI [49]: > 100 µM | GI50 [50]: 55.2 µM | TGI [50]: > 100 µM | GI50 [51]: 55.9 µM | TGI [51]: > 100 µM | GI50 [52]: > 100 µM | TGI [52]: > 100 µM | GI50 [53]: 48.5 µM | TGI [53]: > 100 µM | GI50 [54]: 3.74 µM | TGI [54]: > 100 µM | GI50 [55]: 1.91 µM | TGI [55]: > 100 µM | GI50 [56]: 15.9 µM | TGI [56]: > 100 µM | GI50 [57]: > 100 µM | TGI [57]: > 100 µM

CC1=C[C@H]2c3c(c(O)c(O)c4oc5ccccc5c(=O)c34)[C@H](c3cc(O)c(O)c4oc5ccccc5c(=O)c34)[C@H]2C(C)(C)C1
GI50 [1]: 0.802 µM | TGI [1]: 24.1 µM | GI50 [2]: 0.764 µM | TGI [2]: 19.3 µM | GI50 [3]: 1.87 µM | TGI [3]: 6.03 µM | GI50 [4]: 0.675 µM | TGI [4]: 8.34 µM | GI50 [5]: 1.1 µM | TGI [5]: 16.5 µM | GI50 [6]: 0.379 µM | TGI [6]: 9.89 µM | GI50 [7]: 0.443 µM | TGI [7]: 2.28 µM | GI50 [8]: 0.863 µM | TGI [8]: 9.22 µM | GI50 [9]: 0.93 µM | TGI [9]: 46.9 µM | GI50 [10]: 1.14 µM | TGI [10]: 16.4 µM | GI50 [11]: 0.384 µM | TGI [11]: 34.4 µM | GI50 [12]: 1.39 µM | TGI [12]: 5.43 µM | GI50 [13]: 3.07 µM | TGI [13]: 16.3 µM | GI50 [14]: 1.44 µM | TGI [14]: 12.8 µM | GI50 [15]: 0.86 µM | TGI [15]: 13.8 µM | GI50 [58]: 3.22 µM | TGI [58]: 10.8 µM | GI50 [16]: 0.276 µM | TGI [16]: 4.91 µM | GI50 [17]: 0.22 µM | TGI [17]: 1.83 µM | GI50 [19]: 2.5 µM | TGI [19]: 14.2 µM | GI50 [20]: 0.22 µM | TGI [20]: > 100 µM | GI50 [21]: 0.802 µM | TGI [21]: 10.7 µM | GI50 [22]: 0.978 µM | TGI [22]: 8.35 µM | GI50 [23]: 0.728 µM | TGI [23]: 14 µM | GI50 [24]: 3.18 µM | TGI [24]: 14.7 µM | GI50 [25]: 0.451 µM | TGI [25]: 1.76 µM | GI50 [26]: 0.42 µM | TGI [26]: 2.52 µM | GI50 [27]: 2.24 µM | TGI [27]: 6.72 µM | GI50 [28]: 0.519 µM | TGI [28]: 3.38 µM | GI50 [29]: 1.05 µM | TGI [29]: 8.09 µM | GI50 [30]: 0.786 µM | TGI [30]: 20.2 µM | GI50 [31]: 2.3 µM | TGI [31]: 11.1 µM | GI50 [32]: 1.01 µM | TGI [32]: 14.4 µM | GI50 [33]: 0.909 µM | TGI [33]: 12.9 µM | GI50 [34]: 1.92 µM | TGI [34]: 6.69 µM | GI50 [35]: 0.707 µM | TGI [35]: 2.33 µM | GI50 [36]: 1.17 µM | TGI [36]: 2.51 µM | GI50 [38]: 1.99 µM | TGI [38]: 6.24 µM | GI50 [39]: 0.73 µM | TGI [39]: 2.18 µM | GI50 [40]: 0.609 µM | TGI [40]: > 100 µM | GI50 [41]: 1.1 µM | TGI [41]: 4.89 µM | GI50 [42]: 0.224 µM | TGI [42]: 1.75 µM | GI50 [43]: 2.65 µM | TGI [43]: 18.1 µM | GI50 [44]: 0.518 µM | TGI [44]: 3.22 µM | GI50 [45]: 2.8 µM | TGI [45]: 9.73 µM | GI50 [46]: 1.36 µM | TGI [46]: 5.66 µM | GI50 [47]: 1.07 µM | TGI [47]: 9.53 µM | GI50 [48]: 1.17 µM | TGI [48]: 14.1 µM | GI50 [49]: 0.426 µM | TGI [49]: 10.5 µM | GI50 [50]: 0.839 µM | TGI [50]: 4.42 µM | GI50 [51]: 2.19 µM | TGI [51]: 15.3 µM | GI50 [52]: 0.637 µM | TGI [52]: 6.59 µM | GI50 [53]: 1.36 µM | TGI [53]: 6.71 µM | GI50 [54]: 1.77 µM | TGI [54]: 5.57 µM | GI50 [55]: 0.772 µM | TGI [55]: 11.1 µM | GI50 [56]: 2.9 µM | TGI [56]: 19.1 µM | GI50 [57]: 1.86 µM | TGI [57]: 13.3 µM

Reference: PubChem BioAssay (NCI)
